Assays:
PDK1 50-360 = molecular target: T1, PDK1 50-360 (Homo sapiens, UniProt O15530); test: Isothermal Titration Calorimetry; assay type: binding; details: ITC
T1 construct: the catalytic domain of PDK1 (50-359) produced in SF9 insect cells; His-tag (pFastbac-HT, TEV site) (N, cleaved yes); made in house; host or cells: Sf9 insect cells (baculovirus, pFastbac-HT)
T1 sequence (O15530 50-359): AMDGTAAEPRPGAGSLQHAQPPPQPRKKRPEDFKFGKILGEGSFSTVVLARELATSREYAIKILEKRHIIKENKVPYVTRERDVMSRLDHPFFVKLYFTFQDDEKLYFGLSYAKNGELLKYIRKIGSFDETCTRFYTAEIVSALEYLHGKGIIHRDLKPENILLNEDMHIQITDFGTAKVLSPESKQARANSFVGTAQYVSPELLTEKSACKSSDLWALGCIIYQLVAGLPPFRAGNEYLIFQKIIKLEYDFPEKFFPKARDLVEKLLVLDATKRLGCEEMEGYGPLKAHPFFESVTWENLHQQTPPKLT
Experimental: FIG. 8—Characterization of compound 1 interaction with PDK1 50-360 by Isothermal Titration Calorimetry (ITC). Upper panel, raw data of the titration of compound 1 into PDK1 50-360. Lower panel, integrated heats of injection, corrected for the heat of dilution, with the solid line corresponding to the best fit of the data using Origin™ software. The best fit corresponded to a model with one type of sites. […] The calorimetric titration was performed using the VP-ITC instrument from MicroCal Inc. (Northampton, Mass.) as previously described (Schaeffer et al., 2002) with the following modifications. PDK1 and compound 1 were prepared in 50 mM Tris-HCl (pH 7.5), 175 mM NaCl, 1 mM DTT and 3% DMSO. Titration was performed by 30 successive injections (10 μl) of compound 1 (0.9 mM) into a 1.41 ml reaction cell containing PDK1 50-360 ([…]). Raw calorimetric data were corrected for the heat of dilution, and analyzed using the program Origin™ provided by the manufacturer. Binding stoichiometry, enthalpy and equilibrium dissociation constants were determined by fitting corrected data to a model with a single binding site.

[1] = system: GST-S6K1-T2[Thr412Ala] in HEK 293 cells; test: S6K activation loop phosphorylation in transfected HEK 293 cells; assay type: cell-based, human; details: 200 μM, 90 minutes
Experimental: FIG. 4—Small compounds designed to bind the HM/PIF-pocket of PDK1 can block the PDK1-dependent phosphorylation and activation of substrates that require docking to the HM/PIF-pocket of PDK1. (A) Effect of compound 1 (100 and 200 μM) on PDK1 phosphorylation of its substrate S6K1. The phosphorylation reaction was performed in vitro with [γ^32P]ATP and then separated on SDS-PAGE followed by exposure to phosphorimager. The radioactive band corresponding to phosphorylated GST-56K1-T2[Thr412Glu] (S6K[412E]) is indicated. (B) PDK1 or PDK1[Val127Leu] (PDK1[V127L]) were pre-incubated with GST-[…]N-SGK1 [Ser422Asp] […] (C) The activity of S6K was measured in vitro after glutathione sepharose purification; aliquots of purified proteins were separated on SDS-PAGE and the level of activation loop phosphorylation was visualized by immunoblotting using phospho-specific antibodies that recognize the phosphorylated activation loop, followed by stripping of the membranes and re-probing with anti-GST to verify the presence of equal amounts of protein. (D) Cells overexpressing GST-56K1-T2[Thr412Glu] were treated as in (C) but S6K activity was measured in vitro after immunoprecipitation of the GST-fusion protein with anti-GST antibodies; the level of S6K expression was analysed by western-blotting of crude extracts. […]

PDK1 = molecular target: T2, PDK1 (Homo sapiens, UniProt O15530); test: PDK1 thermal denaturation; details: data not shown
T2 sequence (O15530 1-556): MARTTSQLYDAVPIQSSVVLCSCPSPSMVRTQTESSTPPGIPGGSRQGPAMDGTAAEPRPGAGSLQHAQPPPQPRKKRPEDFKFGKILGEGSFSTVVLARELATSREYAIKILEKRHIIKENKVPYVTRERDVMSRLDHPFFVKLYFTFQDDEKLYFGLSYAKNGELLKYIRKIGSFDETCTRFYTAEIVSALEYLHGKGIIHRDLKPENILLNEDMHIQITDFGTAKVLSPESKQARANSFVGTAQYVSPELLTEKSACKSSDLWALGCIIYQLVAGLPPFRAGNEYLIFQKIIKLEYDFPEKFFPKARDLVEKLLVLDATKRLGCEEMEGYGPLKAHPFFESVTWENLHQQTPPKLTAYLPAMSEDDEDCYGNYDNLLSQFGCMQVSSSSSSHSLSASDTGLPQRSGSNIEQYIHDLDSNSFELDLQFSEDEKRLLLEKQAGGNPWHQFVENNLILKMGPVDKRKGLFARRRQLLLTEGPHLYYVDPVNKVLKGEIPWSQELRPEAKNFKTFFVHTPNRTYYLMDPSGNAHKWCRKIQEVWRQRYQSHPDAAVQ

O=C(O)CSC(CC(=O)c1ccc(Cl)cc1)c1ccccc1 (stereo not drawn) [Compound 1]
N (binding stoichiometry) (PDK1 50-360): 1.0 ± 0.1 | TΔS (PDK1 50-360): 4.3 ± 0.2 kcal/mol | ΔH (PDK1 50-360): −2.1+0.1 kcal·mol^−1 | Kd (PDK1 50-360; one type of sites, pH 7.5, 3% DMSO): 18 µM | activation loop phosphorylation of S6K1-T2[Thr412Ala] (in words) [1]: significantly decreased | stabilization of PDK1 to thermal denaturation (in words) (PDK1): did not stabilize
